#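 Each compound was tested at five concentrations against cells in 96-well plates for 48 hours. At the GI50, growth is halved.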 Calls of active or inactive are those of the source. No stated cut-off is given here; in the data, active = GI50 up to about 1.1 µM and inactive = higher.
# How the values were obtained:
# Assay in all cases: NCI anticancer screen, dose series, 48 h
# [1] = tested on: HT-29
# [2] = tested on: OVCAR-4
# [3] = tested on: NCI-H460
# [4] = tested on: SR
# [5] = tested on: PC-3
# [6] = tested on: UACC-62
# [7] = tested on: TK-10
# [8] = tested on: 786-0
# [9] = tested on: HOP-62
# [10] = tested on: SNB-19
# [11] = tested on: CCRF-CEM
# [12] = tested on: CAKI-1
# [13] = tested on: NCI-H226
# [14] = tested on: SNB-75
# [15] = tested on: A498
# [16] = tested on: DLD-1
# [17] = tested on: LOX IMVI
# [18] = tested on: SF-539
# [19] = tested on: SK-MEL-5
# [20] = tested on: HL-60
SMILES,GI50 [1],GI50 [2],GI50 [3],GI50 [4],GI50 [5],GI50 [6],GI50 [7],GI50 [8],GI50 [9],GI50 [10],GI50 [11],GI50 [12],GI50 [13],GI50 [14],GI50 [15],GI50 [16],GI50 [17],GI50 [18],GI50 [19],GI50 [20]
N/C(S)=N/N=C/c1ncccc1O,3.56 µM (inactive),2.96 µM (inactive),1.29 µM (inactive),3.01 µM (inactive),2.97 µM (inactive),0.482 µM (active),9.57 µM (inactive),1.16 µM (inactive),1.23 µM (inactive),2.65 µM (inactive),0.475 µM (active),0.927 µM (active),2.95 µM (inactive),1.94 µM (inactive),2.25 µM (inactive),2.26 µM (inactive),0.925 µM (active),,,
O=C1C(Br)=C(c2ccccc2)C(c2ccccc2)=C1c1ccccc1,2.28 µM (inactive),1.99 µM (inactive),4.83 µM (inactive),0.979 µM (active),4.1 µM (inactive),2.38 µM (inactive),3.42 µM (inactive),1.95 µM (inactive),14.2 µM (inactive),11.4 µM (inactive),0.269 µM (active),2.44 µM (inactive),8.43 µM (inactive),3.63 µM (inactive),16.1 µM (inactive),1.82 µM (inactive),1.33 µM (inactive),3.01 µM (inactive),2.94 µM (inactive),0.67 µM (active)
CC[n+]1c(/C=C/c2ccc(N(CCCl)CCCl)cc2)ccc2cc(NC(=O)/C=C/c3ccccc3)ccc21,0.344 µM (active),0.254 µM (active),0.245 µM (active),0.189 µM (active),0.402 µM (active),0.646 µM (active),2.95 µM (inactive),0.336 µM (active),0.318 µM (active),0.393 µM (active),0.118 µM (active),2.13 µM (inactive),0.456 µM (active),0.131 µM (active),10.3 µM (inactive),0.628 µM (active),0.329 µM (active),0.308 µM (active),0.174 µM (active),0.115 µM (active)
COc1cc2c(c(OC)c1OC)-c1ccc(OC)c(=O)cc1[C@@H](NC(=O)c1ccccc1)CC2,0.0114 µM (active),,,0.155 µM (active),0.0169 µM (active),< 0.0113 µM (active),0.17 µM (active),0.0184 µM (active),0.0379 µM (active),,< 0.01 µM (active),0.0206 µM (active),0.067 µM (active),< 0.0327 µM (active),< 0.0121 µM (active),< 0.0124 µM (active),0.0142 µM (active),,0.0107 µM (active),< 0.01 µM (active)
